Data reported in patent EP0167553B1, “NEW THERAPEUTICAL APPLICATION OF AN INDANE DIONE DERIVATIVE AND PHARMACEUTICAL COMPOSITIONS INTENDED TO SAID UTILIZATION” (priority 1983, dated 1985).

Key:
[1] = test system: Rats: Wistar femelles; experiment: Atherogenic diet (modified Aubert technique): biochemical examinations and atherogenic risk; format: in vivo, Rat Wistar; parameters: score général Biochimie / Risque athérogène Score Total: scale not given here; details: 100 mg/kg
Source text: (§1) La technique utilisée est celle, légèrement modifiée, de AUBERT D., FERAUD J.C., LACAZE B., PEPINO., PANAK E. et PODESTA M. "Athérogénèse expérimentale chez le Rat Wistar". ATHEROSCLEROSIS 2Q (1974) 263 - 280.
(§2) • - Rats: Wistar femelles, E.O.P.S. en provenance de l'élevage EVIC-CEBA. • - Poids corporel: 160 180 g au départ de l'étude • - Alimentation: UAR A03, enrichi en cholestérol (0,5 %) et en Acide chloique (0,5 %). • - Eau de boisson: eau de ville. • - 15 animaux par lot et par cage MAKROLON SAFI® de 59 x 38,5 cm sur litière de copeaux de bois blanc dépoussiérés. • - Cages placées dans un module animalerie climatisé (20°C * 1°C), à l'humidité constante (50 % ± 10 %). Durée d'éclairement: 12 heures par jour (7 h à 19 h). • - Administration des produits: Après 15 jours de régime athéromateux, on leur administre par voie orale pendant 4 jours 250 000 Ul/kg de vitamine D2 (Stérogyl 15 H) en solution dans l'huile d'olive. On administre ensuite les produits à étudier pendant 4 semaines dès la fin de l'administration de l'agent lésionnel.
(§3) L'étude porte sur 5 Lots de 15 rats (tableau N° IV)
En fin d'étude, on pratique sur tous les animaux survivants les examens suivants: • - Cholestérol total, • - Cholestérol estérifié, • - Cholestérol HDL • - Cholestérol LDL (évaluation), • - Lipides totaux, • - Triglycérides.

[2] = test system: Rats: Wistar femelles; experiment: Atherogenic diet (modified Aubert technique): macroscopic examination of the aorta; format: in vivo, Rat Wistar; details: 100 mg/kg
Source text: as §1, §2
En fin d'étude, tous les animaux sont sacrifiés par ponction subtotale du sang à l'aorte abdominale après anesthésie au pentobarbital sodique. On prélève le coeur, le foie et l'aorte sur laquelle on effectue la cotation du pouvoir athérogène. Pour ce faire, les aortes sont coupées longitudinalement puis étalées pour permettre une vue d'ensemble du revêtement endothélial depuis les valvules aortiques jusqu'à la bifurcation du tronc coeliaque (segment inférieur de l'aorte thoracique).
L'aorte est séparée en 2 zones: • - Zone 1: Valvules aortiques - premières artères intercostales • - Zone 2: premières artères intercostales - bifurcation du tronc coeliaque.
L'intensité des dépôts athéromateux est évaluée selon les critères suivants: • - Stade 0: Absence de dépôts • - Stade 1: Dépôts discrets ([…]) peu nombreux • - Stade 2: Dépôts discrets nombreux • - Stade 3: Dépôts importants (> 1 mm) nombreux • - Stade 4: Dépôts très importants ou très nombreux mais laissant quelques zones non infiltrées. • - Stade 5: Dépôts sur tout l'endothélium.
Deux paramètres sont à prendre en considération: • 1. Le nombre d'animaux présentant des lésions macroscopiques, dont le pourcentage d'animaux atteints. • 2. L'intensité des lésions observées cotées selon les indications fournies précédemment.

[3] = test system: Rats: Wistar femelles; experiment: Atherogenic diet (modified Aubert technique): histopathological examination; format: in vivo, Rat Wistar; details: 100 mg/kg; three parameters scored relative to Clofibrate
Source text: as §1, §2
Les aortes, les foies et les coeurs sont fixés au Bouitaqueux et inclus à la paraffine après passage par les alcools à concentration croissante et par le toluène.
Les foies sont colorés par la technique à l'hématéine-éosine. Les aortes sont colorées par: • - la technique à l'orcéine - vert lumière afin de mettre en évidence les altérations structurales des lames élastiques. • - la technique à l'acide périodique plus réactif de Schiff pour déceler les dépôts de mucopolysaccharides, • - la technique à l'hématéine plus éosine afin de mettre en évidence les dépôts de calcium.
L'intensité des altérations observées et le degré d'athéromatose sont indiquées par l'un des signes:
• - Pas d'athéromatose 0 • = Très léger degré d'athéromatose 0,5 • + Léger degré d'athéromatose 1 • ++ Moyen degré d'athéromatose 2 • +++Important degré d'athéromatose 3
Les zones athéromateuses sont dénombrées sur une longueur identique pour chacune des aortes examinées. […]

[4] = test system: Rats: Wistar femelles; experiment: Atherogenic diet (modified Aubert technique): mortality, body weight, tolerance, overall score; format: in vivo, Rat Wistar; details: 100 mg/kg
Protocol: as §2, §3
• - Le comportement et l'[…] pondérale des animaux sont étudiés par l'observation quotidienne et les pesées hebdomadaires. L'étude de l'évolution pondérale ne montre pas de différence significative entre les différents lots. C'est un indice de bonne tolérance du traitement. • - La moralité est notée dans chaque lot; elle peut atteindre 30 % des animaux ce qui nécessite des lots de 15 animaux. L'administration chronique de 100 mg/kg de Clofibrate correspond à la dose maximale tolérée par le Rat sain selon nos expériences personnelles.
Les scores obtenus par les différents produits étudiés sont les suivants (Tableau V)

[5] = test system: Rat Wistar; experiment: Hyperlipidaemia induced by Triton WR 1339 injection; format: in vivo; parameters: Triglycérides, score par rapport au Procétofène 250 mg/kg: scale not given here
Source text: L'hyperlipidémie par injection de Triton WR 1339 (marque de fabrique), réalisée chez le Rat Wistar, est antagonisée ou diminuée par l'administration d'agents hypolipémiants.
• - Rats Wistar mâles. • - Poids corporel: 150 -180 grammes. • - Animaux E.O.P.S. (Exempts d'Organisme Pathogène Spécifique). • - Alimentation UAR A04 • - Eau de boisson à volonté • - 6 animaux par lot de traitement et par cage MAKROLON SAFI (marque de fabrique) 60 X 40 cm, sur litière de copeaux de bois dépoussiérés • - Cages placées dans un module animalerie climatisé (19 à 21°C) à degré hygrométrique constant (40 à 60 p.100), dans lequel l'air est renouvelé 10 fois par heure, 12 heures d'éclairement par jour.
• . - 18 h: mise à jeun. • . Temps 0 - administration du Triton WR 1339® (400 mg/kg IP.). • . + 10 mn: administration du produit étudié. • - + 6 h: 1er prélèvement sanguin au sinus rétro-orbitaire. • . + 24 h: 2ème prélèvement sanguin au sinus rétro-orbitaire.
L'essai comporte 8 lots dont un lot témoin (animaux sains) et un lot témoin triton (Tableau I).

[6] = 4 weeks, score relative to Clofibrate (Base 1)
[7] = 250 mg/kg, 6 heures after Triton
[8] = 250 mg/kg, 24 heures after Triton
[9] = 500 mg/kg, 6 heures after Triton
[10] = 500 mg/kg, 24 heures after Triton

**Q.** Which results are given for CC(C)OC(=O)C(C)(C)Oc1ccc(C(=O)c2ccc(Cl)cc2)cc1 [Fenclofibrate]?
**A.** Cholesterol LDL Cholesterol HDL Score/Clofibrate [1]: 0.16; Cholesterol T/ Cholesterol HDL Score/Clofibrate [1]: 0.07; Risque athérogène Score Total [1]: 0.23; Cholesterol E Score [1, 6]: 0.40; Cholesterol HDL Score [1, 6]: 0.04; Cholesterol LDL Score [1, 6]: 0.16; Cholesterol T Score [1, 6]: 0.02; Lipides totaux Score [1, 6]: 0.29; Cholesterol LDL Cholesterol HDL Score ([1]; atherogenic risk ratio): 21.44; Cholesterol T/ Cholesterol HDL Score ([1]; atherogenic risk ratio): 25.32; score général Biochimie ([1]; sum of the individual biochemical scores): 1.98; Animaux Atteints Score Clofibrate [2]: 0.92; Intensité des lésions Score Clofibrate [2]: 1.25; Observations Macroscopiques Score Total [2]: 2.17; Animaux Atteints % ([2]; animals with macroscopic lesions): 83.33%; Intensité des lésions Cotation ([2]; scale Stade 0 to Stade 5): 1.83; Histologie score [3]: 2.13; taux de mortalité ([4]; lots of 15 rats on atherogenic diet): 3/15; Score Total ([4]; sum of Biochimie, Risque athérogène, Macroscopie, Histologie): 6.51

**Q.** For CC(C)OC(=O)C(C)(C)Oc1ccc(C(=O)c2ccc(Cl)cc2)cc1 [Procétofène, reference compound], which “Chol. HDL/ LDL, score par rapport au Procétofène 250 mg/kg” value (from here on “Chol. HDL/ LDL”) [5, 7] is on record?
**A.** 1.00

**Q.** And the “Chol. Total, score par rapport au Procétofène 250 mg/kg” value (from here on “Chol. Total”) [5, 7]?
**A.** 1.00

**Q.** What about the “Lipides Totaux, score par rapport au Procétofène 250 mg/kg” value [5, 7] of the same compound?
**A.** 1.00

**Q.** And the “Score Total par rapport au Procétofène 250 mg/kg” value [5, 7]?
**A.** 4.00

**Q.** What about the “Triglycérides, score par rapport au Procétofène 250 mg/kg” value [5, 7] of the same compound?
**A.** 1.00

**Q.** What about the “Chol. HDL/ LDL” value [5, 8] of the same compound?
**A.** 1.00

**Q.** And the “Chol. Total” value [5, 8]?
**A.** 1.00

**Q.** What about the “Lipides Total, score par rapport au Procétofène 250 mg/kg” value [5, 8] of the same compound?
**A.** 1.00

**Q.** And the “Score Total par rapport au Procétofène 250 mg/kg” value [5, 8]?
**A.** 4.00

**Q.** And the “Triglycérides, score par rapport au Procétofène 250 mg/kg” value [5, 8]?
**A.** 1.00

**Q.** And the “Chol. HDL/ LDL” value [5, 9]?
**A.** 1.53

**Q.** And the “Chol. Total” value [5, 9]?
**A.** 1.65

**Q.** What about the “Lipides Totaux, score par rapport au Procétofène 250 mg/kg” value [5, 9] of the same compound?
**A.** 1.65

**Q.** And the “Score Total par rapport au Procétofène 250 mg/kg” value [5, 9]?
**A.** 5.12

**Q.** What about the “Chol. HDL/ LDL” value [5, 10] of the same compound?
**A.** 0.30

**Q.** And the “Lipides Total, score par rapport au Procétofène 250 mg/kg” value [5, 10]?
**A.** 0.85

**Q.** And the “Score Total par rapport au Procétofène 250 mg/kg” value [5, 10]?
**A.** 3.33
